Test system: Crude diglycosidase
Experiment: Examination of pH in the conversion into isoflavone aglycons by diglycosidase using soybean materials
Format: biochemical, Penicillium multicolor IAM7153
Design: Decomposition efficiency of genistin family in soymilk / Decomposition efficiency of genistin family in defatted soybean / Decomposition efficiency of daidzin family in defatted soybean: concentration or dose not given beside the values
Conditions: for Decomposition efficiency of genistin family in roasted soy flour: 55° C.
Method in brief: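 Conversion of glycosides to isoflavone aglycons was followed by HPLC after crude diglycosidase (1.88 AU/mL enzyme solution) acted at 55° C for up to 6 h on four soy materials, 50 mg each, held at pH 2–11.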

[1] = pH4.8, heat treatment of enzyme: no, reaction time 0 h
[2] = pH4.8, heat treatment of enzyme: no, reaction time 1 h
[3] = pH4.8, heat treatment of enzyme: no, reaction time 3 h
[4] = pH4.8, heat treatment of enzyme: no, reaction time 6 h
[5] = pH4.8, heat treatment of enzyme: yes, reaction time 6 h
[6] = pH6.6, heat treatment of enzyme: no, reaction time 0 h
[7] = pH6.6, heat treatment of enzyme: no, reaction time 1 h
[8] = pH6.6, heat treatment of enzyme: no, reaction time 3 h
[9] = pH6.6, heat treatment of enzyme: no, reaction time 6 h
[10] = pH6.6, heat treatment of enzyme: yes, reaction time 6 h

O=C(O)CC(=O)OC[C@H]1O[C@@H](Oc2cc(O)c3c(=O)c(-c4ccc(O)cc4)coc3c2)[C@H](O)[C@@H](O)[C@@H]1O [malonylgenistin, 6″-O-malonylgenistin]
Decomposition efficiency of genistin family in concentrated soybean protein (pH1.6, heat treatment of enzyme: no, reaction time 0 h): not detected | Decomposition efficiency of genistin family in concentrated soybean protein (pH1.6, heat treatment of enzyme: no, reaction time 1 h): not detected | Decomposition efficiency of genistin family in concentrated soybean protein (pH1.6, heat treatment of enzyme: no, reaction time 3 h): not detected | Decomposition efficiency of genistin family in concentrated soybean protein (pH1.6, heat treatment of enzyme: no, reaction time 6 h): not detected | Decomposition efficiency of genistin family in concentrated soybean protein (pH1.6, heat treatment of enzyme: yes, reaction time 6 h): not detected | Decomposition efficiency of genistin family in roasted soy flour (pH2, heat treatment of enzyme no, reaction time 0 h): not detected | Decomposition efficiency of genistin family in roasted soy flour (pH2, heat treatment of enzyme no, reaction time 1 h): not detected | Decomposition efficiency of genistin family in roasted soy flour (pH2, heat treatment of enzyme no, reaction time 3 h): not detected | Decomposition efficiency of genistin family in roasted soy flour (pH2, heat treatment of enzyme no, reaction time 6 h): not detected | Decomposition efficiency of genistin family in roasted soy flour (pH2, heat treatment of enzyme yes, reaction time 6 h): not detected | Decomposition efficiency of genistin family in soymilk (pH2.3, heat treatment of enzyme: no, reaction time 0 h): 58.2% | Decomposition efficiency of genistin family in soymilk (pH2.3, heat treatment of enzyme: no, reaction time 1 h): 57.5% | Decomposition efficiency of genistin family in soymilk (pH2.3, heat treatment of enzyme: no, reaction time 3 h): 54.1% | Decomposition efficiency of genistin family in soymilk (pH2.3, heat treatment of enzyme: no, reaction time 6 h): 52.1% | Decomposition efficiency of genistin family in soymilk (pH2.3, heat treatment of enzyme: yes, reaction time 6 h): 54.3% | Decomposition efficiency of genistin family in defatted soybean (pH2.6, heat treatment of enzyme: no, reaction time 0 h): 43.8% | Decomposition efficiency of genistin family in defatted soybean (pH2.6, heat treatment of enzyme: no, reaction time 1 h): 44.4% | Decomposition efficiency of genistin family in defatted soybean (pH2.6, heat treatment of enzyme: no, reaction time 3 h): 45.4% | Decomposition efficiency of genistin family in defatted soybean (pH2.6, heat treatment of enzyme: no, reaction time 6 h): 43.5% | Decomposition efficiency of genistin family in defatted soybean (pH2.6, heat treatment of enzyme: yes, reaction time 6 h): 42.0% | Decomposition efficiency of genistin family in concentrated soybean protein (pH2.7, heat treatment of enzyme: no, reaction time 0 h): not detected | Decomposition efficiency of genistin family in concentrated soybean protein (pH2.7, heat treatment of enzyme: no, reaction time 1 h): not detected | Decomposition efficiency of genistin family in concentrated soybean protein (pH2.7, heat treatment of enzyme: no, reaction time 3 h): not detected | Decomposition efficiency of genistin family in concentrated soybean protein (pH2.7, heat treatment of enzyme: no, reaction time 6 h): not detected | Decomposition efficiency of genistin family in concentrated soybean protein (pH2.7, heat treatment of enzyme: yes, reaction time 6 h): not detected | Decomposition efficiency of genistin family in roasted soy flour (pH3, heat treatment of enzyme no, reaction time 0 h): not detected | Decomposition efficiency of genistin family in roasted soy flour (pH3, heat treatment of enzyme no, reaction time 1 h): not detected | Decomposition efficiency of genistin family in roasted soy flour (pH3, heat treatment of enzyme no, reaction time 3 h): not detected | Decomposition efficiency of genistin family in roasted soy flour (pH3, heat treatment of enzyme no, reaction time 6 h): not detected | Decomposition efficiency of genistin family in roasted soy flour (pH3, heat treatment of enzyme yes, reaction time 6 h): not detected | Decomposition efficiency of genistin family in defatted soybean (pH3.4, heat treatment of enzyme: no, reaction time 0 h): 43.8% | Decomposition efficiency of genistin family in defatted soybean (pH3.4, heat treatment of enzyme: no, reaction time 1 h): 41.6% | Decomposition efficiency of genistin family in defatted soybean (pH3.4, heat treatment of enzyme: no, reaction time 3 h): 36.4% | Decomposition efficiency of genistin family in defatted soybean (pH3.4, heat treatment of enzyme: no, reaction time 6 h): 30.4% | Decomposition efficiency of genistin family in defatted soybean (pH3.4, heat treatment of enzyme: yes, reaction time 6 h): 39.8% | Decomposition efficiency of genistin family in soymilk (pH3.5, heat treatment of enzyme: no, reaction time 0 h): 58.2% | Decomposition efficiency of genistin family in soymilk (pH3.5, heat treatment of enzyme: no, reaction time 1 h): 27.9% | Decomposition efficiency of genistin family in soymilk (pH3.5, heat treatment of enzyme: no, reaction time 3 h): 7.5% | Decomposition efficiency of genistin family in soymilk (pH3.5, heat treatment of enzyme: no, reaction time 6 h): 2.7% | Decomposition efficiency of genistin family in soymilk (pH3.5, heat treatment of enzyme: yes, reaction time 6 h): 52.7% | Decomposition efficiency of genistin family in concentrated soybean protein (pH3.7, heat treatment of enzyme: no, reaction time 0 h): not detected | Decomposition efficiency of genistin family in concentrated soybean protein (pH3.7, heat treatment of enzyme: no, reaction time 1 h): not detected | Decomposition efficiency of genistin family in concentrated soybean protein (pH3.7, heat treatment of enzyme: no, reaction time 3 h): not detected | Decomposition efficiency of genistin family in concentrated soybean protein (pH3.7, heat treatment of enzyme: no, reaction time 6 h): not detected | Decomposition efficiency of genistin family in concentrated soybean protein (pH3.7, heat treatment of enzyme: yes, reaction time 6 h): not detected | Decomposition efficiency of genistin family in roasted soy flour (pH4, heat treatment of enzyme no, reaction time 0 h): not detected | Decomposition efficiency of genistin family in roasted soy flour (pH4, heat treatment of enzyme no, reaction time 1 h): not detected | Decomposition efficiency of genistin family in roasted soy flour (pH4, heat treatment of enzyme no, reaction time 3 h): not detected | Decomposition efficiency of genistin family in roasted soy flour (pH4, heat treatment of enzyme no, reaction time 6 h): not detected | Decomposition efficiency of genistin family in roasted soy flour (pH4, heat treatment of enzyme yes, reaction time 6 h): not detected | Decomposition efficiency of genistin family in defatted soybean [1]: 43.2% | Decomposition efficiency of genistin family in soymilk [1]: 58.6% | Decomposition efficiency of genistin family in defatted soybean [2]: 42.8% | Decomposition efficiency of genistin family in soymilk [2]: 41.0% | Decomposition efficiency of genistin family in defatted soybean [3]: 37.5% | Decomposition efficiency of genistin family in soymilk [3]: 23.9% | Decomposition efficiency of genistin family in defatted soybean [4]: 31.1% | Decomposition efficiency of genistin family in soymilk [4]: 11.3% | Decomposition efficiency of genistin family in defatted soybean [5]: 41.7% | Decomposition efficiency of genistin family in soymilk [5]: 51.9% | Decomposition efficiency of genistin family in roasted soy flour (pH5, heat treatment of enzyme no, reaction time 0 h): not detected | Decomposition efficiency of genistin family in roasted soy flour (pH5, heat treatment of enzyme no, reaction time 1 h): not detected | Decomposition efficiency of genistin family in roasted soy flour (pH5, heat treatment of enzyme no, reaction time 3 h): not detected | Decomposition efficiency of genistin family in roasted soy flour (pH5, heat treatment of enzyme no, reaction time 6 h): not detected | Decomposition efficiency of genistin family in roasted soy flour (pH5, heat treatment of enzyme yes, reaction time 6 h): not detected | Decomposition efficiency of genistin family in concentrated soybean protein (pH5.1, heat treatment of enzyme: no, reaction time 0 h): not detected | Decomposition efficiency of genistin family in concentrated soybean protein (pH5.1, heat treatment of enzyme: no, reaction time 1 h): not detected | Decomposition efficiency of genistin family in concentrated soybean protein (pH5.1, heat treatment of enzyme: no, reaction time 3 h): not detected | Decomposition efficiency of genistin family in concentrated soybean protein (pH5.1, heat treatment of enzyme: no, reaction time 6 h): not detected | Decomposition efficiency of genistin family in concentrated soybean protein (pH5.1, heat treatment of enzyme: yes, reaction time 6 h): not detected | Decomposition efficiency of genistin family in defatted soybean (pH5.4, heat treatment of enzyme: no, reaction time 0 h): 43.2% | Decomposition efficiency of genistin family in defatted soybean (pH5.4, heat treatment of enzyme: no, reaction time 1 h): 48.0% | Decomposition efficiency of genistin family in defatted soybean (pH5.4, heat treatment of enzyme: no, reaction time 3 h): 44.6% | Decomposition efficiency of genistin family in defatted soybean (pH5.4, heat treatment of enzyme: no, reaction time 6 h): 39.7% | Decomposition efficiency of genistin family in defatted soybean (pH5.4, heat treatment of enzyme: yes, reaction time 6 h): 45.8% | Decomposition efficiency of genistin family in soymilk (pH6.2, heat treatment of enzyme: no, reaction time 0 h): 58.6% | Decomposition efficiency of genistin family in soymilk (pH6.2, heat treatment of enzyme: no, reaction time 1 h): 52.6% | Decomposition efficiency of genistin family in soymilk (pH6.2, heat treatment of enzyme: no, reaction time 3 h): 41.2% | Decomposition efficiency of genistin family in soymilk (pH6.2, heat treatment of enzyme: no, reaction time 6 h): 35.8% | Decomposition efficiency of genistin family in soymilk (pH6.2, heat treatment of enzyme: yes, reaction time 6 h): 51.5% | Decomposition efficiency of genistin family in roasted soy flour (pH6.5, heat treatment of enzyme no, reaction time 0 h): not detected | Decomposition efficiency of genistin family in roasted soy flour (pH6.5, heat treatment of enzyme no, reaction time 1 h): not detected | Decomposition efficiency of genistin family in roasted soy flour (pH6.5, heat treatment of enzyme no, reaction time 3 h): not detected | Decomposition efficiency of genistin family in roasted soy flour (pH6.5, heat treatment of enzyme no, reaction time 6 h): not detected | Decomposition efficiency of genistin family in roasted soy flour (pH6.5, heat treatment of enzyme yes, reaction time 6 h): not detected | Decomposition efficiency of genistin family in concentrated soybean protein [6]: not detected | Decomposition efficiency of genistin family in defatted soybean [6]: 47.1% | Decomposition efficiency of genistin family in concentrated soybean protein [7]: not detected | Decomposition efficiency of genistin family in defatted soybean [7]: 50.1% | Decomposition efficiency of genistin family in concentrated soybean protein [8]: not detected | Decomposition efficiency of genistin family in defatted soybean [8]: 48.3% | Decomposition efficiency of genistin family in concentrated soybean protein [9]: not detected | Decomposition efficiency of genistin family in defatted soybean [9]: 46.1% | Decomposition efficiency of genistin family in concentrated soybean protein [10]: not detected | Decomposition efficiency of genistin family in defatted soybean [10]: 45.7% | Decomposition efficiency of genistin family in soymilk (pH7.2, heat treatment of enzyme: no, reaction time 0 h): 57.0% | Decomposition efficiency of genistin family in soymilk (pH7.2, heat treatment of enzyme: no, reaction time 1 h): 56.9% | Decomposition efficiency of genistin family in soymilk (pH7.2, heat treatment of enzyme: no, reaction time 3 h): 51.5% | Decomposition efficiency of genistin family in soymilk (pH7.2, heat treatment of enzyme: no, reaction time 6 h): 46.4% | Decomposition efficiency of genistin family in soymilk (pH7.2, heat treatment of enzyme: yes, reaction time 6 h): 51.1% | Decomposition efficiency of genistin family in defatted soybean (pH7.8, heat treatment of enzyme: no, reaction time 0 h): 45.8% | Decomposition efficiency of genistin family in defatted soybean (pH7.8, heat treatment of enzyme: no, reaction time 1 h): 46.6% | Decomposition efficiency of genistin family in defatted soybean (pH7.8, heat treatment of enzyme: no, reaction time 3 h): 44.4% | Decomposition efficiency of genistin family in defatted soybean (pH7.8, heat treatment of enzyme: no, reaction time 6 h): 42.2% | Decomposition efficiency of genistin family in defatted soybean (pH7.8, heat treatment of enzyme: yes, reaction time 6 h): 39.9% | Decomposition efficiency of genistin family in roasted soy flour (pH8.5, heat treatment of enzyme no, reaction time 0 h): not detected | Decomposition efficiency of genistin family in roasted soy flour (pH8.5, heat treatment of enzyme no, reaction time 1 h): not detected | Decomposition efficiency of genistin family in roasted soy flour (pH8.5, heat treatment of enzyme no, reaction time 3 h): not detected | Decomposition efficiency of genistin family in roasted soy flour (pH8.5, heat treatment of enzyme no, reaction time 6 h): not detected | Decomposition efficiency of genistin family in roasted soy flour (pH8.5, heat treatment of enzyme yes, reaction time 6 h): not detected | Decomposition efficiency of genistin family in concentrated soybean protein (pH8.6, heat treatment of enzyme: no, reaction time 0 h): not detected | Decomposition efficiency of genistin family in concentrated soybean protein (pH8.6, heat treatment of enzyme: no, reaction time 1 h): not detected | Decomposition efficiency of genistin family in concentrated soybean protein (pH8.6, heat treatment of enzyme: no, reaction time 3 h): not detected | Decomposition efficiency of genistin family in concentrated soybean protein (pH8.6, heat treatment of enzyme: no, reaction time 6 h): not detected | Decomposition efficiency of genistin family in concentrated soybean protein (pH8.6, heat treatment of enzyme: yes, reaction time 6 h): not detected | Decomposition efficiency of genistin family in soymilk (pH11.6, heat treatment of enzyme: no, reaction time 0 h): 54.2% | Decomposition efficiency of genistin family in soymilk (pH11.6, heat treatment of enzyme: no, reaction time 1 h): 57.7% | Decomposition efficiency of genistin family in soymilk (pH11.6, heat treatment of enzyme: no, reaction time 3 h): 52.6% | Decomposition efficiency of genistin family in soymilk (pH11.6, heat treatment of enzyme: no, reaction time 6 h): 49.5% | Decomposition efficiency of genistin family in soymilk (pH11.6, heat treatment of enzyme: yes, reaction time 6 h): 47.7%

From patent publication US7118895B2, “Process for producing aglycon by using diglycosidase and flavor-improved food containing the aglycon and converting agent to be used in the process” (Amano Enzyme Inc., priority 2000, dated 2006)
